Values belong to the compound of their own block, whether it stands above or below them.
What was measured:
[1] = tested on: P. falciparum 3D7 trophozoites; experiment: Metabolomic fingerprint profiling LC-MS; assay type: cell-based, Plasmodium falciparum; design: UDP-D-glucose / ADP-D-glucose: unit not given here; details: for Acetyllysine / N-acetyl-L-ornithine / N-carbamoyl-L-aspartate / NADPH / dAMP / dCMP / dTDP / dTMP / dTTP / dihydroorotate / orotate / DLH / DLS/SDL/SID / PD / PEE / PVNF / 3-phosphoglycerate / ADP-D-glucose / ATP / CDP / D-sedoheptulose-1/7-phosphate / FAD / GMP / NAD+ / NADP+ / Octoluse Bisphosphate / Pyroglutamic acid / UDP-D-glucose / UDP-D-glucuronate / UDP-N-acetyl-glucosamine / UDP / UMP / UTP / a-ketoglutarate / citrate/isocitrate / cytidine / dATP / dGMP/AMP / fumarate / glucose-1/6-phosphate / glycerate / guanine / guanosine / hypoxanthine / indole / inosine / nicotinate / ornithine / phosphoenolpyruvate / pyruvate / ribose-phosphate / sarcosine/alanine / sn-glycerol-3-phosphate / succinate/methylmalonic acid / uridine / xanthosine: S2 Table Metabolomics; for Acetyllysine: metabolite Acetyllysine; for N-acetyl-L-ornithine: metabolite N-acetyl-L-ornithine; for N-carbamoyl-L-aspartate: metabolite N-carbamoyl-L-aspartate; for NADPH: metabolite NADPH; for dAMP: metabolite dAMP; for dCMP: metabolite dCMP; for dTDP: metabolite dTDP; for dTMP: metabolite dTMP; for dTTP: metabolite dTTP; for dihydroorotate: metabolite dihydroorotate; for orotate: metabolite orotate; for DLH: peptide DLH; for DLS/SDL/SID: peptide DLS/SDL/SID; for PD: peptide PD; for PEE: peptide PEE; for PVNF: peptide PVNF; for 3-phosphoglycerate: metabolite 3-phosphoglycerate; for ADP-D-glucose: metabolite ADP-D-glucose; for ATP: metabolite ATP; for CDP: metabolite CDP; for CDP / D-sedoheptulose-1/7-phosphate / GMP / Octoluse Bisphosphate / UDP / UMP / UTP / citrate/isocitrate / dGMP/AMP / fumarate / glucose-1/6-phosphate / glycerate / guanine / guanosine / inosine / pyruvate / sarcosine/alanine / succinate/methylmalonic acid / uridine / xanthosine: change in metabolite level after compound treatment; for D-sedoheptulose-1/7-phosphate: metabolite D-sedoheptulose-1/7-phosphate; for FAD: metabolite FAD; for GMP: metabolite GMP; for NAD+: metabolite NAD+; for NADP+: metabolite NADP+; for Octoluse Bisphosphate: metabolite Octoluse Bisphosphate; for Pyroglutamic acid: metabolite Pyroglutamic acid; for UDP-D-glucose: metabolite UDP-D-glucose; for UDP-D-glucuronate: metabolite UDP-D-glucuronate; for UDP-N-acetyl-glucosamine: metabolite UDP-N-acetyl-glucosamine; for UDP: metabolite UDP; for UMP: metabolite UMP; for UTP: metabolite UTP; for a-ketoglutarate: metabolite a-ketoglutarate; for citrate/isocitrate: metabolite citrate/isocitrate; for cytidine: metabolite cytidine; for dATP: metabolite dATP; for dGMP/AMP: metabolite dGMP/AMP; for fumarate: metabolite fumarate; for glucose-1/6-phosphate: metabolite glucose-1/6-phosphate; for glycerate: metabolite glycerate; for guanine: metabolite guanine; for guanosine: metabolite guanosine; for hypoxanthine: metabolite hypoxanthine; for indole: metabolite indole; for inosine: metabolite inosine; for 2_3-Diphosphoglyceric acid / 4-phosphopantothenate / 6-phospho-D-gluconate / FMN / IMP / Pyrophosphate / Sedoheptoluse bisphosphate / cyclic-AMP / glutathione disulfide / lactate / myo-inositol: metabolite level change after treatment; for nicotinate: metabolite nicotinate; for ornithine: metabolite ornithine; for phosphoenolpyruvate: metabolite phosphoenolpyruvate; for pyruvate: metabolite pyruvate; for ribose-phosphate: metabolite ribose-phosphate; for sarcosine/alanine: metabolite sarcosine/alanine; for sn-glycerol-3-phosphate: metabolite sn-glycerol-3-phosphate; for succinate/methylmalonic acid: metabolite succinate/methylmalonic acid; for uridine: metabolite uridine; for xanthosine: metabolite xanthosine
P. falciparum = experiment: EC50 listed in S2 Table Metabolomics (used to set the concentration tested); assay type: cell-based; details: Plasmodium falciparum; EC50 used for Factor_XEC50 in metabolomics; read-out: EC50_nM

Compound: Cc1ccc(-c2cc3c(nn2)-c2ccccc2C3=O)cc1 [MMV666021]
Acetyllysine [1]: -0.3916
N-acetyl-L-ornithine [1]: -0.1425
N-carbamoyl-L-aspartate [1]: 3.794
NADPH [1]: 1.165
dAMP [1]: -0.6653
dCMP [1]: -0.7362
dTDP [1]: -1.533
dTMP [1]: -1.5256
dTTP [1]: -1.181
dihydroorotate [1]: 4.247
orotate [1]: -2.195
DLH [1]: 0.5354
DLS/SDL/SID [1]: 0.5895
PD [1]: 0.02372
PEE [1]: 0.1996
PVNF [1]: 0.3334
3-phosphoglycerate [1]: 0.4336
ADP-D-glucose [1]: 0.0706
ATP [1]: 0.08889
CDP [1]: -1.433
D-sedoheptulose-1/7-phosphate [1]: -0.7013
FAD [1]: 0.04196
GMP [1]: 1.198
NAD+ [1]: -0.07934
NADP+ [1]: 0.07896
Octoluse Bisphosphate [1]: 0.0421
Pyroglutamic acid [1]: -0.4992
UDP-D-glucose [1]: 0.003691
UDP-D-glucuronate [1]: -0.1073
UDP-N-acetyl-glucosamine [1]: -0.2024
UDP [1]: -2.005
UMP [1]: -0.6482
UTP [1]: -1.713
a-ketoglutarate [1]: -0.6601
citrate/isocitrate [1]: -2.126
cytidine [1]: 0.5518
dATP [1]: 0.3766
dGMP/AMP [1]: -0.5358
fumarate [1]: 0.2361
glucose-1/6-phosphate [1]: 0.01993
glycerate [1]: -1.131
guanine [1]: -0.835
guanosine [1]: -1.803
hypoxanthine [1]: -0.06084
indole [1]: -0.09156
inosine [1]: -0.5269
2_3-Diphosphoglyceric acid [1]: -0.1865
4-phosphopantothenate [1]: -0.7776
6-phospho-D-gluconate [1]: 0.009051
FMN [1]: 0.04698
IMP [1]: -0.1163
Pyrophosphate [1]: -0.09516
Sedoheptoluse bisphosphate [1]: -0.2318
cyclic-AMP [1]: -0.2358
glutathione disulfide [1]: -0.3199
lactate [1]: -0.9153
myo-inositol [1]: -1.23
nicotinate [1]: -1.397
ornithine [1]: 0.08018
phosphoenolpyruvate [1]: 0.1844
pyruvate [1]: -1.786
ribose-phosphate [1]: 0.5392
sarcosine/alanine [1]: -0.3874
sn-glycerol-3-phosphate [1]: 0.4697
succinate/methylmalonic acid [1]: -0.7859
uridine [1]: -1.3045
xanthosine [1]: -0.5693
EC50 (P. falciparum): 94.4 nM

EC50 (P. falciparum): 6.71 nM
Compound: Cc1cc(Nc2ccc(C)c(Cl)c2)n2nc(C(F)(F)F)nc2n1 [MMV665874]
Acetyllysine [1]: -0.4022
N-acetyl-L-ornithine [1]: -0.2526
N-carbamoyl-L-aspartate [1]: 4.028
NADPH [1]: 0.1752
dAMP [1]: -0.05231
dCMP [1]: -0.05814
dTDP [1]: -1.343
dTMP [1]: -1.0853
dTTP [1]: -1.254
dihydroorotate [1]: 5.397
orotate [1]: 0.2167
DLH [1]: -0.1943
DLS/SDL/SID [1]: -0.1199
PD [1]: -0.005549
PEE [1]: -0.4065
PVNF [1]: -0.2835
3-phosphoglycerate [1]: 0.03547
ADP-D-glucose [1]: 0.02005
ATP [1]: 0.1462
CDP [1]: -0.8722
D-sedoheptulose-1/7-phosphate [1]: -0.2118
FAD [1]: -0.01762
GMP [1]: 0.4662
NAD+ [1]: -0.1
NADP+ [1]: -0.1197
Octoluse Bisphosphate [1]: 0.03302
Pyroglutamic acid [1]: 0.08116
UDP-D-glucose [1]: -0.2063
UDP-D-glucuronate [1]: -0.109
UDP-N-acetyl-glucosamine [1]: -0.4453
UDP [1]: -1.835
UMP [1]: -1.099
UTP [1]: -1.702
a-ketoglutarate [1]: -0.1317
citrate/isocitrate [1]: -0.1582
cytidine [1]: -0.03725
dATP [1]: 0.3143
dGMP/AMP [1]: 0.07446
fumarate [1]: -0.3892
glucose-1/6-phosphate [1]: 0.2173
glycerate [1]: 0.07615
guanine [1]: 0.251
guanosine [1]: 0.7775
hypoxanthine [1]: -0.1073
indole [1]: -0.01704
inosine [1]: -0.02522
2_3-Diphosphoglyceric acid [1]: 0.1914
4-phosphopantothenate [1]: -0.3242
6-phospho-D-gluconate [1]: 0.01162
FMN [1]: -0.4401
IMP [1]: -0.2175
Pyrophosphate [1]: 0.07871
Sedoheptoluse bisphosphate [1]: 0.06707
cyclic-AMP [1]: -0.1282
glutathione disulfide [1]: -0.03556
lactate [1]: -0.043
myo-inositol [1]: -0.09181
nicotinate [1]: -0.01808
ornithine [1]: 0.04606
phosphoenolpyruvate [1]: 0.07297
pyruvate [1]: 0.2233
ribose-phosphate [1]: 0.2644
sarcosine/alanine [1]: 0.1358
sn-glycerol-3-phosphate [1]: 0.2659
succinate/methylmalonic acid [1]: -1.091
uridine [1]: -0.8568
xanthosine [1]: -0.03941

EC50 (P. falciparum): 251 nM
Compound: c1ccc2cc3c(Nc4ccc(N5CCOCC5)cc4)ccnc3cc2c1 [MMV006861]
Acetyllysine [1]: 0.001155
N-acetyl-L-ornithine [1]: 0.1202
N-carbamoyl-L-aspartate [1]: 0.09461
NADPH [1]: 0.6132
dAMP [1]: -0.1929
dCMP [1]: 0.2768
dTDP [1]: 0.03656
dTMP [1]: 0.1106
dTTP [1]: -0.07535
dihydroorotate [1]: 0.311
orotate [1]: -0.21
DLH [1]: 0.09611
DLS/SDL/SID [1]: 0.08895
PD [1]: 0.008487
PEE [1]: 0.1992
PVNF [1]: -0.07307
3-phosphoglycerate [1]: -0.2621
ADP-D-glucose [1]: 0.04555
ATP [1]: 0.1894
CDP [1]: 0.09878
D-sedoheptulose-1/7-phosphate [1]: 0.1691
FAD [1]: 0.1498
GMP [1]: 0.6017
NAD+ [1]: 0.04038
NADP+ [1]: 0.01746
Octoluse Bisphosphate [1]: 0.06917
Pyroglutamic acid [1]: 0.7013
UDP-D-glucose [1]: -0.003086
UDP-D-glucuronate [1]: -0.03493
UDP-N-acetyl-glucosamine [1]: 0.008052
UDP [1]: 0.1461
UMP [1]: -0.13
UTP [1]: -0.06454
a-ketoglutarate [1]: -0.4694
citrate/isocitrate [1]: -0.2815
cytidine [1]: -0.002725
dATP [1]: -0.03123
dGMP/AMP [1]: -0.0595
fumarate [1]: -0.1611
glucose-1/6-phosphate [1]: 0.03738
glycerate [1]: -0.6693
guanine [1]: -0.08848
guanosine [1]: -0.211
hypoxanthine [1]: -0.05987
indole [1]: -0.08261
inosine [1]: -0.2117
2_3-Diphosphoglyceric acid [1]: 0.06563
4-phosphopantothenate [1]: -0.011
6-phospho-D-gluconate [1]: -0.02789
FMN [1]: 0.1069
IMP [1]: -0.3519
Pyrophosphate [1]: 0.04971
Sedoheptoluse bisphosphate [1]: 0.0295
cyclic-AMP [1]: 0.009655
glutathione disulfide [1]: -0.09687
lactate [1]: -0.2479
myo-inositol [1]: -0.35
nicotinate [1]: -0.2896
ornithine [1]: -0.2133
phosphoenolpyruvate [1]: -0.1566
pyruvate [1]: -0.275
ribose-phosphate [1]: -0.01288
sarcosine/alanine [1]: -0.00437
sn-glycerol-3-phosphate [1]: -0.1431
succinate/methylmalonic acid [1]: -0.003665
uridine [1]: -0.2532
xanthosine [1]: -0.2406

Source: PMC4965013, “Open Source Drug Discovery with the Malaria Box Compound Collection for Neglected Diseases and Beyond” (PLoS Pathogens, 2016)
